Experimental data as given in publication PMC9334755 (Cancer Biology & Medicine, 2021).

Columns and labels:
Pfeiffer cells = assay: Apoptosis detection (Annexin V / 7-AAD) in Pfeiffer cells; type: cell-based; conditions: 24 h, Annexin V and 7-AAD
Description: Apoptosis assays were performed with an Annexin V-PE Apoptosis Detection Kit I (BD Biosciences). Briefly, 5 × 10^5 Pfeiffer cells were seeded on 6-well plates and treated with BTK inhibitors at the indicated concentrations. After 24 h or 48 h, cells were collected and stained with PE Annexin V and 7-AAD according to the manufacturer’s instructions. FACS analysis was performed with a Guava flow cytometer.
Figure 4 SY-1530 blocks B-cell receptor signaling and induces apoptosis. (A–D) Human B and T cells were purified and incubated with different concentrations of BTK inhibitors for 1 h. B cells were stimulated with 50 μg/mL anti-human IgM F(ab′)2, and T cells were stimulated with 50 μg/mL anti-CD3/CD28 beads overnight directly or after washout of BTK inhibitors before stimulation. The percentage of CD69 positive cells was analyzed by flow cytometry. Data are shown as the mean ± SEM (n = 3). Statistical analysis was performed with Student’s t-test (*P < 0.05, **P < 0.01, ***P < 0.001). (E) Pfeiffer cells and Romas cells were preincubated with different concentrations of compounds for 1 h, washed with PBS, and then stimulated with anti-IgM/anti-IgG (10 μg/mL) for 10 min. Cells were lysed and analyzed by Western blot with the indicated antibodies. […] The cells were stained with both PE-Annexin and 7-AAD and analyzed by flow cytometry. […] Cells were lysed and analyzed with specific antibodies.

B cell = assay: Cell viability assay (CellTiter-Blue), human B cells; type: cell-based; conditions: read-out: IC50 (nM), growth of B cell
Description: (§1) Cells were seeded on 96-well plates (9,000 cells/well), cultured at 37 °C in 5% CO2 overnight, and incubated with different concentrations of compounds for 3 or 7 days. Then the cells were stained with CellTiter-Blue® reagent (Promega) for 4 h at 37 °C. The fluorescence signals were detected with a FlexStation 3, and the IC50 values of each compound were determined with GraFit software (Version 6.0).
(§2) CD19^+ B (>80% purity) and CD3^+ T (>90% purity) cells were purified with human B cell enrichment cocktail and human T cell enrichment cocktail (Stem Cell Technology), respectively. Cells were seeded on 12-well plates and incubated with different concentrations of BTK inhibitors for 1 h. B cells were stimulated with 50 µg/mL anti-human IgM F(ab′)2, and T cells were stimulated with 50 µg/mL anti-CD3/CD28 beads overnight. In the washout groups, the cell medium containing the indicated inhibitors was replaced with fresh medium before stimulation. Then cells were then incubated with anti-human CD69 for 1 h and analyzed with a Guava flow cytometer.

FGR = FGR (Homo sapiens, UniProt P09769); assay: Protein kinase panel at 1 µM, FGR; type: biochemical
BTK = BTK (Homo sapiens, UniProt Q06187); assay: Competition with fluorescent probe FL-SY-1530 in DOHH2 cells (Typhoon imaging); type: cell-based; conditions: 10 nM inhibitor 1 h, then 2.5 µM FL-SY-1530 1 h
Description: Data are shown as the mean ± SEM. […] Data are shown as the mean ± SEM of 3 independent experiments. Statistical analysis was performed with Student’s t-test (**P < 0.01, ***P < 0.001). […] Cells were lysed and then analyzed by Western blot and fluorescent gel scanning. […] Cells were lysed and analyzed by Western blot and fluorescent gel scanning.

T cell = assay: Cell viability assay (CellTiter-Blue), human T cells; type: cell-based; conditions: read-out: IC50 (nM), growth of T cell
Description: as §1, §2

TEC = TEC (Homo sapiens, UniProt P42680); assay: HTRF kinase assay, TEC
Description: Homogeneous time-resolved fluorescence (HTRF) assays were performed with a HTRF® KinEASE™-TK kit (Trevigen).

TXK = TXK (Homo sapiens, UniProt P42681); assay: Protein kinase panel at 1 µM, TXK; type: biochemical
FYN = FYN (Homo sapiens, UniProt P06241); assay: Protein kinase panel at 1 µM, FYN; type: biochemical
RET = RET (Homo sapiens, UniProt P07949); assay: Protein kinase panel at 1 µM, RET; type: biochemical
LYN A = LYN A (Homo sapiens, UniProt P07948); assay: Protein kinase panel at 1 µM, LYN A; type: biochemical
PTK6 = PTK6 (Homo sapiens, UniProt Q13882); assay: Protein kinase panel at 1 µM, PTK6; type: biochemical
FRK = FRK (Homo sapiens, UniProt P42685); assay: Protein kinase panel at 1 µM, FRK; type: biochemical
human peripheral T cells = assay: CD69 up-regulation in T cells after anti-CD3/CD28 stimulation; type: cell-based
Description: as §2
Figure 4 SY-1530 blocks B-cell receptor signaling and induces apoptosis. (A–D) Human B and T cells were purified and incubated with different concentrations of BTK inhibitors for 1 h. B cells were stimulated with 50 μg/mL anti-human IgM F(ab′)2, and T cells were stimulated with 50 μg/mL anti-CD3/CD28 beads overnight directly or after washout of BTK inhibitors before stimulation. The percentage of CD69 positive cells was analyzed by flow cytometry. Data are shown as the mean ± SEM (n = 3). Statistical analysis was performed with Student’s t-test (*P < 0.05, **P < 0.01, ***P < 0.001). (E) Pfeiffer cells and Romas cells were preincubated with different concentrations of compounds for 1 h, washed with PBS, and then stimulated with anti-IgM/anti-IgG (10 μg/mL) for 10 min. Cells were lysed and analyzed by Western blot with the indicated antibodies. (F) Pfeiffer cells were treated with various concentrations of SY-1530 for 24 h. The cells were stained with both PE-Annexin and 7-AAD and analyzed by flow cytometry. Data are shown as the mean ± SEM (n = 3). Statistical analysis was performed with Student’s t-test (*P < 0.05, **P < 0.01). (G) Pfeiffer cells were incubated with BTK inhibitors in the presence of z-VAD-fmk (caspase inhibitor) or DMSO for 24 h. Cells were lysed and analyzed with specific antibodies.

BLK = BLK (Homo sapiens, UniProt P51451); assay: Protein kinase panel at 1 µM, BLK; type: biochemical
hERG = hERG (Homo sapiens, UniProt Q12809)
Source text: Tissue distribution *From the literature.
Hear Liver Spleen LungKidney Brain Uteru Ovar TestisPlasma
Compound Maximum concentration (μM) Inhibition rate of maximumconcentration IC 50 (μM) […]

FLT1 = FLT1 (Homo sapiens, UniProt P17948); assay: Protein kinase panel at 1 µM, FLT1; type: biochemical
[1] = tested on: spontaneous canine B-cell lymphoma; assay: Spontaneous canine B-cell lymphoma; type: in vivo, dog; set-up: key to Outcome: CR: complete response; PR: partial response; PD: progressive disease; SD: stable disease
Description: Dogs with spontaneous lymphoma were purchased from the China Agricultural University Veterinary Teaching Hospital, and the study was approved by the institutional animal care and use committee of Shouyao Holdings (approval No. CTA-2014003). The inclusion criterion was a confirmed histologic diagnosis of B-cell lymphoma (on the basis of immunohistochemistry for CD21 and CD79a). SY-1530 capsules (20–40 mg) were administered daily until disease progression. The dogs were re-examined every week for 4 weeks and subsequently biweekly. The sum of the longest diameters of all target lesions was defined as the tumor burden. According to the criteria for evaluation of the response of peripheral nodal lymphoma in dogs developed by the Veterinary Cooperative Oncology Group, the response was classified as complete response, partial response, progressive disease, or stable disease.

TEC, sequence (P42680 whole entry): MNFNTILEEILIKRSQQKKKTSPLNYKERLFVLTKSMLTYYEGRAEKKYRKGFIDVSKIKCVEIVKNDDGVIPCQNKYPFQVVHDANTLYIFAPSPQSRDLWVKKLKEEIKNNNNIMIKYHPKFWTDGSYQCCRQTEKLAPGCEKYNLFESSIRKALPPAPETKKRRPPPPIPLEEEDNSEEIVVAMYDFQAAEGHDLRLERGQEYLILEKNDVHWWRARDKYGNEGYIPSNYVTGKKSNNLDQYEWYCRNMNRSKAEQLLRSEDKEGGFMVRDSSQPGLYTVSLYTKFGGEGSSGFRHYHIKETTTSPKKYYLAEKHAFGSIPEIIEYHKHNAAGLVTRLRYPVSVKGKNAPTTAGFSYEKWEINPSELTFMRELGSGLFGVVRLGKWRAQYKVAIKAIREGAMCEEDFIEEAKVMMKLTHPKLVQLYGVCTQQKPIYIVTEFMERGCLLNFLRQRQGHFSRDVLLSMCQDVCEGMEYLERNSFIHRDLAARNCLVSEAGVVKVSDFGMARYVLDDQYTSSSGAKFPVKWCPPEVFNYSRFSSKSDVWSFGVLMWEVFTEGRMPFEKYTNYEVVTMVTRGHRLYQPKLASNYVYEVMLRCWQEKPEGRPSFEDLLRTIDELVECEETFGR
hERG, sequence (Q12809 whole entry): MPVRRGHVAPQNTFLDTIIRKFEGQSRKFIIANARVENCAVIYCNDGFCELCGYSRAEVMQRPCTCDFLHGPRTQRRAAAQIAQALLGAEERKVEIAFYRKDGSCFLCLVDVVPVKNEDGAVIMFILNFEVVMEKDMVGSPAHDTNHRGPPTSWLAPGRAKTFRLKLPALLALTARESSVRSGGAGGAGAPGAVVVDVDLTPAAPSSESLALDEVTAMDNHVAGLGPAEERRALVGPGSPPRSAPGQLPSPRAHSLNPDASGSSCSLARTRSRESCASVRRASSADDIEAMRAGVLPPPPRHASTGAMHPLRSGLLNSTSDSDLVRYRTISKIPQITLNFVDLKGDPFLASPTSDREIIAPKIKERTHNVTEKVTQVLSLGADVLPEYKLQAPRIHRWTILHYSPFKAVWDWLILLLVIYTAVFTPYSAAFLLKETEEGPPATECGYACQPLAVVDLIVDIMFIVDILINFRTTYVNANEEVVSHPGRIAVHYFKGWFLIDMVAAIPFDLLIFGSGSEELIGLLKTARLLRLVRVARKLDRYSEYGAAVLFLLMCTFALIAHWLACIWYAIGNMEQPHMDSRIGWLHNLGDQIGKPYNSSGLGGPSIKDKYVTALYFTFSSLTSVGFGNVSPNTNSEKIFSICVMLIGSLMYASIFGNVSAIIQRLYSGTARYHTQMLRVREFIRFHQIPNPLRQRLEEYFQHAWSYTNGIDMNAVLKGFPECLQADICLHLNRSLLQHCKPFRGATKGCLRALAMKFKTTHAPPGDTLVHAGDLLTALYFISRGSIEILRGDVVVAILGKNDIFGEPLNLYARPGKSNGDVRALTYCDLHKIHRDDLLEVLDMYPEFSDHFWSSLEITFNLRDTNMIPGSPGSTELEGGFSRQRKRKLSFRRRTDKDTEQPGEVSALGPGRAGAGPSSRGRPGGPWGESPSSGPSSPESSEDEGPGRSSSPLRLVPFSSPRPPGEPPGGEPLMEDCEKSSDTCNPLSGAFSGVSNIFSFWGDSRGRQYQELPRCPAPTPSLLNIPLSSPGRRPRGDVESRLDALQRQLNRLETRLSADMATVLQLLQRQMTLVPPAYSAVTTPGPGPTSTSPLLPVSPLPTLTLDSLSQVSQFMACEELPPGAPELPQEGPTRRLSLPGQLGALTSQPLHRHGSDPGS
FYN, sequence (P06241 whole entry): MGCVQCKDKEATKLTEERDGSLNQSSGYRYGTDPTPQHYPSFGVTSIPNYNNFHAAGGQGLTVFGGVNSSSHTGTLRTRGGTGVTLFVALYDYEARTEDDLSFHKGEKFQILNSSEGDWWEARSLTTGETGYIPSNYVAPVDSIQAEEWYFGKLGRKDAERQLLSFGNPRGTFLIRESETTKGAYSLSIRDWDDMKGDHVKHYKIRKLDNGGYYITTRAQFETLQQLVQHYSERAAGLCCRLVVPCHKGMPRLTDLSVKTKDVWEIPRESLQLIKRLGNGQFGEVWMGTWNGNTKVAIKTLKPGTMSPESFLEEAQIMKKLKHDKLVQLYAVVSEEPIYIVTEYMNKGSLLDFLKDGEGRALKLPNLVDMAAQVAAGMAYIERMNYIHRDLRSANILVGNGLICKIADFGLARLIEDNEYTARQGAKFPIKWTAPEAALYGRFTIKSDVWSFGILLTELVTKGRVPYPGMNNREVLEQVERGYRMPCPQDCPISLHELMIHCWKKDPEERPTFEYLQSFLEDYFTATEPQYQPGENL
RET, sequence (P07949 29-1114): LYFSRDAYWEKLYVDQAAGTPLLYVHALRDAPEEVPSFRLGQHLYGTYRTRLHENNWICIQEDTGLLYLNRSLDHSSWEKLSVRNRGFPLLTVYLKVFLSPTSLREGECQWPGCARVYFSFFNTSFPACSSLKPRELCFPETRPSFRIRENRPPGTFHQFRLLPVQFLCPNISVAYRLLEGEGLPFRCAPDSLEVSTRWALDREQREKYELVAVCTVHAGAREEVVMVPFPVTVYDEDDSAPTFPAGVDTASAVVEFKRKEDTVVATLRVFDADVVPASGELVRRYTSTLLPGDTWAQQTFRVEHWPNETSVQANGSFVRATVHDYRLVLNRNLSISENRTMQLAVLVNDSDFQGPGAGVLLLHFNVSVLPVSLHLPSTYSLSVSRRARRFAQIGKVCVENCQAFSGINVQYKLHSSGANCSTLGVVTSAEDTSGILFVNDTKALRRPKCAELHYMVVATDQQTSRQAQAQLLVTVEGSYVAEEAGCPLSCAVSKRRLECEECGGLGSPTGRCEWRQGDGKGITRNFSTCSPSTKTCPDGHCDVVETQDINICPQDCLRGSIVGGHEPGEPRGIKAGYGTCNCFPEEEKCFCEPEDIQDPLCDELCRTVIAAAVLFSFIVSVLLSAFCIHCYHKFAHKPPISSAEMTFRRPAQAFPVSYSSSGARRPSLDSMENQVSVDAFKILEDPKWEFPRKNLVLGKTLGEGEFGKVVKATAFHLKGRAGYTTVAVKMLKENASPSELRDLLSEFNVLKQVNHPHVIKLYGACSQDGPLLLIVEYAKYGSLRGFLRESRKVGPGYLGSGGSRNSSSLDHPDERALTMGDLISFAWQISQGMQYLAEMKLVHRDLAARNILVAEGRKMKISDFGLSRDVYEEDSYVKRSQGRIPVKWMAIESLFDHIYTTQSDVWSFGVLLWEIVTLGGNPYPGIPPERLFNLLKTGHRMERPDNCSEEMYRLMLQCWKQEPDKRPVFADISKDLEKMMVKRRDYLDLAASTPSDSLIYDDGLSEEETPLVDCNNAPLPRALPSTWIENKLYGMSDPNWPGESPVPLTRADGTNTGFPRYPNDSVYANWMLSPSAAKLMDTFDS
FLT1, sequence (P17948 27-1338): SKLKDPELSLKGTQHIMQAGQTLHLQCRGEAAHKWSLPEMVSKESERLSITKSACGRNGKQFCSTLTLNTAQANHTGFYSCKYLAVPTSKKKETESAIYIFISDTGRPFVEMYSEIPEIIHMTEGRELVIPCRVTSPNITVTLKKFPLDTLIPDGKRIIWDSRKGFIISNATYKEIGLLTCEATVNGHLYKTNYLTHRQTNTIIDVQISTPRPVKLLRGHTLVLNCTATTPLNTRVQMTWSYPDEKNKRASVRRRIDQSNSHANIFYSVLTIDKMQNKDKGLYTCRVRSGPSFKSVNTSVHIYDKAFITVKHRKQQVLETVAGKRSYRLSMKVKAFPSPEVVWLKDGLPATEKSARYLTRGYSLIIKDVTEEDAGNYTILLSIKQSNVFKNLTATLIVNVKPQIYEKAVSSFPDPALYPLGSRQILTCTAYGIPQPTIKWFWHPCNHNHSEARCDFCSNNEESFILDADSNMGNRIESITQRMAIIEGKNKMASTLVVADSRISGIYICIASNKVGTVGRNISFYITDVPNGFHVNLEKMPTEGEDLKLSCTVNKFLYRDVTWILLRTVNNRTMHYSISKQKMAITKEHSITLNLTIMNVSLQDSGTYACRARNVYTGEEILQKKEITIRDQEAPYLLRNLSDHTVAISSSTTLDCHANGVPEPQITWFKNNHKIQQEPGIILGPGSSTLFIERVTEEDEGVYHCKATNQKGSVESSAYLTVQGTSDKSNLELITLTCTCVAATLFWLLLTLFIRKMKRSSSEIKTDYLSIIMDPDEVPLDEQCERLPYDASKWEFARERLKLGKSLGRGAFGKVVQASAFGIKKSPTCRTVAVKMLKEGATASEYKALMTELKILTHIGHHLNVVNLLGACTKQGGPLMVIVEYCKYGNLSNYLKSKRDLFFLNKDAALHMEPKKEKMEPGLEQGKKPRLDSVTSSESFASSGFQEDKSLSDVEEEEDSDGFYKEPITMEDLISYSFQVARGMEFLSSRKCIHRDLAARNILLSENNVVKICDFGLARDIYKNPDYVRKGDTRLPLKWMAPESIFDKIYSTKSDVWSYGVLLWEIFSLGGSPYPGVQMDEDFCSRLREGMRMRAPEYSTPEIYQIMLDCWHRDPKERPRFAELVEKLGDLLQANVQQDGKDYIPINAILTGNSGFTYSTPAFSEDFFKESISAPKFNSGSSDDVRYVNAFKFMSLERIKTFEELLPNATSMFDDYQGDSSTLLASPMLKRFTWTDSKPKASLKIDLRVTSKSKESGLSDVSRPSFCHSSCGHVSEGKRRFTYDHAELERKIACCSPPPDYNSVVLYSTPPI

`COC/C=C/C(=O)N1CC[C@@H](n2nc(-c3ccc(Oc4ccccc4)cc3)c(C(N)=O)c2N)C1` [SY-1530] was tested. Which “Apoptosis in Pfeiffer cells” value (Pfeiffer cells) did it give?
Its value is “induced early and late apoptosis”.

And the IC50 (B cell)?
Its IC50 is 1.05 nM.

And the “Inhibition (%), FGR” value (FGR)?
The value was 96%.

What about the “Binding of FL-SY-1530 to BTK after pretreatment with inhibitor” value (BTK) of the same compound?
The value was “scarcely bound”.

What about the IC50 (T cell) of the same compound?
The IC50 was over 10000 nM.

And the “Ratio, TEC” value (TEC; IC50 SY-1530 over IC50 ibrutinib)?
Its value is 1.3.

What about the IC50 (TEC; read-out: IC50 (nM), TEC, HTRF) of the same compound?
The IC50 was 10.4 nM.

And the “Inhibition (%), TXK” value (TXK)?
The value was 73%.

What about the “Inhibition (%), FYN” value (FYN) of the same compound?
The value was 87%.

What about the “Inhibition (%), RET” value (RET) of the same compound?
The value was 57%.

And the “Inhibition (%), LYN A” value (LYN A)?
The value was 87%.

What about the “Inhibition (%), PTK6” value (PTK6) of the same compound?
The value was 92%.

And the “Inhibition (%), FRK” value (FRK)?
The value was 72%.

What about the “Up-regulation of CD69 in T cells” value (human peripheral T cells; after washout of BTK inhibitors) of the same compound?
Its value is “not affected”.

And the “CD69 up-regulation after T cell receptor stimulation” value (human peripheral T cells; continuous exposure, 10 µM)?
The value was “slightly inhibited”.

And the “Inhibition (%), BLK” value (BLK)?
Its value is 53%.

What about the IC50 (hERG) of the same compound?
Its IC50 is 5410 nM.

And the “Inhibition rate of maximum concentration, hERG” value (hERG; 30 µM)?
Its value is 86.75 ± 2.61%.

And the “Inhibition (%), FLT1” value (FLT1)?
The value was 33%.

And the Outcome ([1]; Dog 01, stage IVb, dose 20/35 mg/kg, treatment interval 21 d)?
The Outcome was “SD/PR”.

What about the Outcome ([1]; Dog 02, stage IVa, dose 20/30/40 mg/kg, treatment interval 150 d) of the same compound?
The Outcome was “CR”.

And the Outcome ([1]; Dog 04, stage IVa, dose 20/30/40 mg/kg, treatment interval 21 d)?
The Outcome was “SD”.

And the Outcome ([1]; Dog 06, stage IVa, dose 20/30/40 mg/kg, treatment interval 21 d)?
Its Outcome is “SD”.

What about the Outcome ([1]; Dog 07, stage IVa, dose 20/30 mg/kg, treatment interval 14 d) of the same compound?
Its Outcome is “SD”.

And the Outcome ([1]; Dog 08, stage IVa, dose 35 mg/kg, treatment interval 21 d)?
Its Outcome is “SD”.

What about the Outcome ([1]; Dog 09, stage IVa, dose 35 mg/kg, treatment interval 21 d) of the same compound?
Its Outcome is “SD”.

What about the Outcome ([1]; Dog 10, stage IVa, dose 35 mg/kg, treatment interval 28 d) of the same compound?
The Outcome was “PR”.

And the Outcome ([1]; Dog 11, stage IIIa, dose 35 mg/kg, treatment interval 14 d)?
Its Outcome is “PR”.

What about the Outcome ([1]; Dog 12, stage IVa, dose 35 mg/kg, treatment interval 21 d) of the same compound?
The Outcome was “SD”.

What about the “Number of dogs with complete response” value ([1]; of 10 dogs) of the same compound?
The value was 1.

What about the “Number of dogs with partial response” value ([1]; of 10 dogs) of the same compound?
Its value is 3.

What about the “Number of dogs with stable disease” value ([1]; of 10 dogs) of the same compound?
Its value is 6.
